For experiment [1], the system named is rat C6 glioma tumor xenografts. Briefly: Rat C6 glioma tumor xenografts in female BALB/C mice. The settings on record: for Delta tumor volumes (mean mm^3±SEM): q7d (i.v., days 3 and 10) alone, control 1289±178. The format is in vivo. On the procedure: STI571 Alone, Epothilone B (EPO906) Alone and the Combination of STI571 Plus Epothilone B Versus Rat C6 Glioma Tumor Xenografts in Female BALB/C Mice
Tumors are initiated by the s.c. injection of 1×10^6 rat C6 cells (n=8/group). When the tumors reaches ˜75 mm^3, STI571 treatment is begun at 200 mg/kg, p.o., q24h.

Experiment [2] has as its system KAT-4 mouse thyroid carcinoma. Briefly: KAT-4 thyroid carcinoma tumors in SCID mice. The experiment is classed as in vivo. To be noted: for effect on tumor growth: STI571 100 mg/kg gavage once daily from day 3, EPO906 0.3 mg/kg s.c. days 6, 13, 20. On the procedure: Study on the Effects of Combining Epothilone B Treatment of KAT-4 Mouse Thyroid Carcinoma with Treatment with STI571
Epothilone B is administered s.c. once weekly. STI571, at a dose of 100 mg/kg, is administered by gavage and given once daily. Tumor volume is determined by mesurements with calipers.
In the study four groups of tumor bearing mice are analyzed: control treated mice, mice treated with either STI571 (100 mg/kg) or 0.3 mg/kg of EPO906 alone and mice treated with both drugs. Treatment is performed on mice with an average starting size of tumor of approximatly 100 mm^3. EPO906 is given at days 6, 13 and 20 and STI571 is given once daily from day 3.

Regarding `C/C(=C\c1csc(C)n1)[C@@H]1C[C@@H]2O[C@]2(C)CCC[C@H](C)[C@H](O)[C@@H](C)C(=O)C(C)(C)[C@@H](O)CC(=O)O1` [EPO906, epothilone B], the entries for the “Delta tumor volumes (mean mm^3±SEM)” value in experiment [1] (EPO906 1 mg/kg) and in experiment [1] (EPO906 2 mg/kg) were 864±115 mm^3 and 419±116 mm^3, respectively. For the same molecule, in experiment [1] (STI571 200 mg/kg p.o. q24h, EPO906 2 mg/kg q7d), the “Delta tumor volume ratio treated/controls” value is reported as 0.325. Further, the “effect on tumor growth” value in experiment [2] is “statistically significant reduction of tumor growth”. Besides, in experiment [2] (end of experiment, STI571 100 mg/kg once daily, EPO906 0.3 mg/kg once weekly), the “final tumor size as % of control tumors” value was found to be 69%.
For `Cc1ccc(NC(=O)c2ccc(CN3CCN(C)CC3)cc2)cc1Nc1nccc(-c2cccnc2)n1` [STI571, N-{5-[4-(4-methyl-piperazino-methyl)-benzoylamido]-2-methylphenyl}-4-(3-pyridyl)-2-pyrimidine-amine], the “effect on tumor growth” value in experiment [2] is “no effect”.

(Values after patent publication US7723339B2, “Combination comprising a signal transduction inhibitor and an epothilone derivative” (Novartis AG, priority 2001, dated 2010).)
